Results taken from US4159373A, “7-Acyl-3-(sulfonic acid and sulfamoyl substituted tetrazolyl thiomethyl) cephalosporins” (SmithKline Corporation, priority 1978, dated 1979).
In brackets after ≈: the same amount, converted by molar mass. Like-named read-outs stand apart in the source and are kept apart here.

Columns and labels:
[1] = system: Serra. marc ATCC 13880; assay: MIC in vitro; format: cell-based, Serratia marcescens; details: Serratia marcescens
Procedure: (§1) The compounds of Formula I have exceptional antibacterial activity against both Gram-positive and Gram-negative organisms. Minimum inhibitory concentrations (MIC's) ranged from 0.2 to <200 μg./ml. in in vitro testing.

[2] = system: Psuedo. sp. HH 63; assay: MIC in vitro; format: cell-based, Pseudo. aeruginosa; details: Pseudomonas aeruginosa
Procedure: as §1

[3] = system: Kleb. pneumo. 4200; assay: In vivo mouse protection, Kleb. pneumo. 4200; details: sc
[4] = system: Entero. cloacae HH 31254; assay: MIC in vitro; format: cell-based; details: Enterobacter cloacae, HH31254, read-out: MIC in vitro, Table 1
[5] = system: E. coli HH 33779; assay: MIC in vitro; format: cell-based; details: Escherichia coli, HH33779, Table 1; E. coli HH 33779; read-out: MIC in vitro
Procedure: as §1

[6] = system: Salmonella ATCC 12176; assay: MIC in vitro; format: cell-based; details: Salmonella, ATCC12176, Table 1, read-out: MIC in vitro
Procedure: as §1

[7] = system: S. aureus SK 23390; assay: MIC in vitro; format: cell-based; details: Staphylococcus aureus, SK23390, Table 1; S. aureus SK 23390; read-out: MIC in vitro
Procedure: as §1

[8] = system: shigella HH 117; assay: MIC in vitro; format: cell-based; details: HH117; Table 1; shigella HH 117; read-out: MIC in vitro
Procedure: as §1

[9] = system: E. coli SK 12140; assay: MIC in vitro; format: cell-based; details: Escherichia coli
Procedure: as §1

[10] = system: S. aureus HH 127; assay: MIC in vitro; format: cell-based; details: Staphylococcus aureus
Procedure: as §1

[11] = system: Proteus morgani 179; assay: MIC in vitro; format: cell-based
Procedure: as §1

[12] = system: Strep. Faecalis HH 34358; assay: MIC in vitro; format: cell-based; details: Enterococcus faecalis
Procedure: as §1

[13] = system: S. villaluz; assay: MIC in vitro; format: cell-based; details: Table 1
Procedure: as §1

[14] = system: E. coli 12140; assay: In vivo mouse protection, E. coli 12140
[15] = system: Entero. aerog. ATCC 13048; assay: MIC in vitro; format: cell-based, Enterobacter aerogenes; details: Klebsiella aerogenes
Procedure: as §1

[16] = system: Kleb. pneumo. SK 4200; assay: MIC in vitro; format: cell-based, Kleb. pneumoniae; details: Klebsiella pneumoniae
Procedure: as §1

[17] = system: Kleb. pneumo. SK 1200; assay: MIC in vitro; format: cell-based, Kleb. pneumoniae; details: Klebsiella pneumoniae
Procedure: as §1

[18] = system: Kleb. pneumoniae 982; assay: MIC in vitro; format: cell-based; details: Klebsiella pneumoniae, Example 54 table, read-out: MIC
[19] = system: Proteus mirabilis 444; assay: MIC in vitro; format: cell-based; details: Example 54 table, read-out: MIC
[20] = system: Staph. aureus 671; assay: MIC in vitro; format: cell-based; details: Staphylococcus aureus, Example 54 table
[21] = system: Staph. aureus 674; assay: MIC in vitro; format: cell-based; details: Staphylococcus aureus, 674, Example 54 table
[22] = system: E. coli 804; assay: MIC in vitro; format: cell-based; details: Escherichia coli, Example 54 table, read-out: MIC
[23] = system: Pseudo. aeruginosa 647; assay: MIC in vitro; format: cell-based; details: Pseudomonas aeruginosa, Example 54 table, read-out: MIC
[24] = system: Enterobacter cloacae 921; assay: MIC in vitro; format: cell-based; details: Enterobacter cloacae, 921, Example 54 table
[25] = ATCC13880, Table 1, Serra. marc ATCC 13880, read-out: MIC in vitro
[26] = Table 1, Psuedo. sp. HH 63, read-out: MIC in vitro
[27] = Table 2, Kleb. pneumo. 4200, s.c., read-out: ED50 in vivo
[28] = Table 1, read-out: MIC in vitro
[29] = Table 1, Strep. Faecalis HH 34358, read-out: MIC in vitro
[30] = Escherichia coli, 12140, po, Table 2, E. coli 12140, p.o., read-out: ED50 in vivo
[31] = Escherichia coli, 12140, sc, Table 2, E. coli 12140, s.c., read-out: ED50 in vivo
[32] = ATCC13048, Table 1, Entero. aerog. ATCC 13048, read-out: MIC in vitro
[33] = Table 1, Kleb. pneumo. SK 4200, read-out: MIC in vitro
[34] = Table 1, Kleb. pneumo. SK 1200, read-out: MIC in vitro

Row | SMILES | MIC [1, 25] | MIC [2, 26] | ED50 [3, 27] | MIC [4] | MIC [5] | MIC [6] | MIC [7] | MIC [8] | MIC [11, 28] | MIC [12, 29] | MIC [13] | ED50 [14, 30] | ED50 [14, 31] | MIC [15, 32] | MIC [16, 33] | MIC [17, 34] | further results
1 | O=C(O)C1=C(CSc2nnnn2CCCCCS(=O)(=O)O)CS[C@@H]2C(NC(=O)[C@H](O)c3ccccc3)C(=O)N12 (stereo partly drawn) [IV, 7-D-Mandelamido-3-[1-(5-sulfopentyl)tetrazol-5-ylthiomethyl]-3-cephem-4-carboxylic acid] | 100 µg/mL (≈ 167 µM) | > 200 µg/mL | 15.7 mg/kg | 0.8 µg/mL (≈ 1.34 µM) | 6.3 µg/mL (≈ 10.5 µM) | 3.1 µg/mL (≈ 5.18 µM) | 0.8 µg/mL (≈ 1.34 µM) | 0.8 µg/mL (≈ 1.34 µM) | 3.1 µg/mL (≈ 5.18 µM) | 50 µg/mL (≈ 83.5 µM) | 12.5 µg/mL (≈ 20.9 µM) | > 50 mg/kg | 18 mg/kg | 6.3 µg/mL (≈ 10.5 µM) | 1.6 µg/mL (≈ 2.67 µM) | 1.6 µg/mL (≈ 2.67 µM) | MIC ([9]; SK12140, Table 1, E. coli SK 12140, read-out: MIC in vitro): 1.6 µg/mL (≈ 2.67 µM); MIC ([10]; HH127, read-out: MIC in vitro, Table 1, S. aureus HH 127): 3.1 µg/mL (≈ 5.18 µM)
2 | NCc1ccc(CC(=O)NC2C(=O)N3C(C(=O)O)=C(CSc4nnnn4CS(=O)(=O)O)CSC23)cc1 (stereo not drawn) [Example 54, 7-(4-Aminomethylphenylacetamido)-3-(1-sulfomethyltetrazol-5-ylthiomethyl)-3-cephem-4-carboxylic acid] |  |  |  |  |  |  |  |  |  |  |  |  |  |  |  |  | MIC ([1]; ATCC13880, Example 54 table, Serratia marcescens ATCC 13880, read-out: MIC): > 100 µg/mL; MIC ([2]; Example 54 table, Pseudo. aeruginosa HH 63, read-out: MIC): > 100 µg/mL; ED50 ([3]; Example 54, s.c., K. pneumo. SKF 4200, read-out: ED50): 0.7 mg/kg; MIC ([9]; SK12140, Example 54 table, E. coli SK&F 12140, read-out: MIC): 6.3 µg/mL (≈ 11.3 µM); MIC ([10]; HH127, Example 54 table, Staph. aureus HH 127, read-out: MIC): 6.3 µg/mL (≈ 11.3 µM); MIC ([11]; Example 54 table, read-out: MIC): > 100 µg/mL; MIC ([12]; Example 54 table, Strep. faecalis HH 34358, read-out: MIC): 100 µg/mL (≈ 180 µM); ED50 ([14]; Escherichia coli, 12140, sc, Example 54, s.c., E. coli SKF 12140, read-out: ED50): 8.7 mg/kg; MIC [18]: > 100 µg/mL; MIC [19]: 1.6 µg/mL (≈ 2.88 µM); MIC [20]: 3.1 µg/mL (≈ 5.58 µM); MIC ([15]; ATCC13048, Example 54 table, Enterobacter aerogenes 13048, read-out: MIC): > 100 µg/mL; MIC [21]: 3.1 µg/mL (≈ 5.58 µM); MIC [22]: > 100 µg/mL; MIC [23]: > 100 µg/mL; MIC ([16]; Example 54 table, Kleb. pneumoniae SK&F 4200, read-out: MIC): 0.4 µg/mL (≈ 0.72 µM); MIC ([17]; Example 54 table, Kleb. pneumoniae SK&F 1200, read-out: MIC): 0.4 µg/mL (≈ 0.72 µM); MIC [24]: 100 µg/mL (≈ 180 µM)
3 | O=C(Cn1cnnn1)NC1C(=O)N2C(C(=O)O)=C(CSc3nnnn3CS(=O)(=O)O)CSC12 (stereo not drawn) [X, 7-(1-tetrazolylacetamido)-3-(1-sulfomethyltetrazol-5-ylthiomethyl)-3-cephem-4-carboxylic acid] | 200 µg/mL (≈ 386 µM) | > 200 µg/mL | 0.64 mg/kg | 0.8 µg/mL (≈ 1.54 µM) | 0.8 µg/mL (≈ 1.54 µM) | 0.4 µg/mL (≈ 0.771 µM) | 1.6 µg/mL (≈ 3.09 µM) | 0.2 µg/mL (≈ 0.386 µM) | 200 µg/mL (≈ 386 µM) | 50 µg/mL (≈ 96.4 µM) | > 200 µg/mL | 50 mg/kg | 1.56 mg/kg | 3.1 µg/mL (≈ 5.98 µM) | 0.4 µg/mL (≈ 0.771 µM) | 0.2 µg/mL (≈ 0.386 µM) | MIC ([9]; SK12140, read-out: MIC in vitro, Table 1, E. coli SK 12140): 0.4 µg/mL (≈ 0.771 µM); MIC ([10]; HH127, Table 1, S. aureus HH 127, read-out: MIC in vitro): 1.6 µg/mL (≈ 3.09 µM)
